Measurements from patent US7235577B1 (priority 2000, dated 2007).

Key:
mKv1.1 = molecular target: T1, mKv1.1 (Mus musculus, UniProt P16388); assay: Selectivity patch clamp, L929 cells expressing mKv1.1; assay type: cell-based
T1 construct: expressed in transfected cells; host or cells: L929
Protocol: (§1) L929 cells stably expressing mKv1.1, rKv1.2, mKv1.3, and mKv3.1 and MEL cells stably expressing hKv1.5 have been previously described (Grissmer 1994, Mol. Pharmacol. 45: 1227). hKv1.4 and rKv4.2 were stably expressed in LTK (HK1–7). Channel expression was induced 8–12 h before the electrophysiological experiments by 4 μM dexamethasone (Sigma). HEK-293 cells stably expressing the skeletal muscle sodium channel hSkM1 (SCN4A) were generated in the laboratory of Dr. F. Lehmann-Horn. HEK-293 cells stably expressing hSloα were obtained from Dr. Andrew Tinker (Center for Clinical Pharmacology, University College London). L929, MEL, LTK and HEK cells were maintained in DMEM containing 10% heat-inactivated fetal calf serum (Summit Biotechnology, Fort Collins, Colo.) and 250 μg/ml G418 (Life Technologies, Inc.). Rat basophilic leukemia (RBL) cells were maintained in Eagle's minimum essential medium with 2 mM L-glutamine and 10% fetal calf serum. CHO cell were maintained in F12K media (ATCC). Human leukemic Jurkat E6–1 cells were cultured in RPMI 1640 supplemented with 10% fetal calf serum and 1 mM L-glutamine. T84 cells were maintained in a 1:1 mixture of Ham's F12 medium and DMEM with 2.5 mM L-glutamine and 10% fetal calf serum.
(§2) Recordings from the Jurkat SKCa channel were made in K^+ aspartate Ringer (Na^+ was replaced by K^+) with the same internal pipette solution. […]

rKv1.2 = molecular target: T2, rKv1.2 (Rattus norvegicus, UniProt P63142); assay: Selectivity patch clamp, L929 cells expressing rKv1.2; assay type: cell-based
T2 construct: expressed in transfected cells; host or cells: L929
Protocol: as §1, §2

mKv1.3 = molecular target: T3, mKv1.3 (Mus musculus, UniProt P16390); assay: Selectivity patch clamp, L929 cells expressing mKv1.3; assay type: cell-based
T3 construct: expressed in transfected cells; host or cells: L929
Protocol: as §1, §2

hKv1.4 = molecular target: T4, hKv1.4 (Homo sapiens, UniProt P22459); assay: Selectivity patch clamp, LTK cells expressing hKv1.4; assay type: cell-based
T4 construct: expressed in transfected cells; host or cells: LTK (dexamethasone-induced)
Protocol: as §1, §2

rKv4.2 = molecular target: T5, rKv4.2 (Rattus norvegicus, UniProt Q63881); assay: Selectivity patch clamp, LTK cells expressing rKv4.2; assay type: cell-based
T5 construct: expressed in transfected cells; host or cells: LTK (dexamethasone-induced)
Protocol: as §1, §2

BK (hSloα) = molecular target: T6, BK (hSloα) (Homo sapiens, UniProt Q12791); assay: Selectivity patch clamp, HEK-293 cells expressing hSloα (BKCa); assay type: cell-based
T6 construct: expressed in transfected cells; host or cells: HEK-293
Protocol: as §1, §2

rKir2.1 = molecular target: T7, rKir2.1 (Rattus norvegicus, UniProt Q64273); assay: Selectivity patch clamp, RBL inward rectifier; assay type: cell-based; conditions: RBL cells; slope conductance at −110 mV
T7 construct: endogenous in cells; host or cells: RBL (rat basophilic leukemia)
Protocol: as §1, §2

HSKM1 = molecular target: T8, HSKM1 (Homo sapiens, UniProt P35499); assay: Selectivity patch clamp, HEK-293 cells expressing skeletal muscle sodium channel hSkM1 (SCN4A); assay type: cell-based
T8 construct: expressed in transfected cells; host or cells: HEK-293
Protocol: as §1, §2

Jurkat-CRAC = assay: Selectivity patch clamp, Jurkat CRAC channels; assay type: cell-based, human; conditions: monovalent currents with Na+ as charge carrier
Protocol: as §1, §2

[1] = molecular target: Kv1.1–1.5, Kv3.1, Kv4.2, Jurkat-SKCa, BKCa, hSKM1-Na, CRAC and lymphocyte chloride channels; assay: Selectivity on other cloned and native ion channels; assay type: cell-based; conditions: all channels of the panel
Protocol: as §1, §2

human T-lymphocytes = assay: In vitro toxicity, propidium iodide uptake, 48 h; assay type: cell-based
Protocol: (§3) The in vitro toxicity was performed as follows.

L929 cells = assay: In vitro toxicity, propidium iodide uptake, 48 h; assay type: cell-based, murine
Protocol: as §3

MEL cells = assay: In vitro toxicity, propidium iodide uptake, 48 h; assay type: cell-based, murine
Protocol: as §3

COS-7 cells = assay: In vitro toxicity, propidium iodide uptake, 48 h; assay type: cell-based, African green monkey
Protocol: as §3

CHO cells = assay: In vitro toxicity, propidium iodide uptake, 48 h; assay type: cell-based, Chinese hamster
Protocol: as §3

RBL-2H3 cells = assay: In vitro toxicity, propidium iodide uptake, 48 h; assay type: cell-based, rat
Protocol: as §3

CF-1 BR mice = assay: ISO acute systemic toxicity study; conditions: single i.v. 0.5 mg/kg
Protocol: An ISO acute systemic toxicity study was performed in CF-1 BR mice (17–19 g) according to the guidelines of the United States Pharmacopeia XXII. […] Five control mice were injected with an equal volume of the vehicle. The mice were weighed at the beginning of the study and at its termination.

[2] = Hydrolytic stability by HPLC; conditions: for stability against hydrolysis: over 72 h
Protocol: A Waters 590 liquid chromatograph with a Waters 746 integrator and a Waters 486 UVN is detector, and a 25 cm Lichrospher RP18 column (5-μM particle size) was used. The mobile phase consisted of K2HPO4 25 mM, KH2PO4 30 mM, methanol at 262:13:725. The chromatographic separation was performed at 20° C. with a flow rate of 1.0 ml/min, the absorbance of the elluent was monitored at 210 nm.
Hydrolysis profiles (10 μM compound with 20% acetonitrile) were carried out in Soerensen phosphate buffer (pH 7.4 and pH 5.0) in a total volume of 10 ml. 100 μl samples were collected 0, 1, 2, 3, 4, 5, 24, 48 and 72 hours after incubation, with shaking, in a waterbath at 37° C. and manually injected into the HPLC over Rheodyne 7125 system. For profiles at pH 1.0 artificial stomach fluid (DAB 9), containing 2 g NaCl, 3,2 g pepsin and 80 ml 1 M HCL in 1.0 L of water was used. After 0, 1 and 2 hours 400 μl of sample were collected and extracted three times with 500 μl of ethyl ether by vortexing. The combined extracts were than evaporated to dryness by passing nitrogen through the solution. The residue was than dissolved in 400 μl of mobile phase of which […] were injected in the HPLC.

ten cell lines = assay: In vitro toxicity, summary over the ten cell lines; conditions: at a concentration 100–250 times the Kd for IKCa1 channel block
Protocol: The in vitro toxicity was performed as follows. Jurkat E6-1, MEL, C2F3, NGP, NLF cells and human T-lymphocytes were seeded at 5×10^5 cells/ml, and L929, COS-7, CHO and RBL cells were seeded at 10^5 cells/ml in twelve-well plates. Drug (2 or 5 μM) was added in a final DMSO concentration of 0.1%. After 48 h of incubation at 37° C. with 5% CO2, cells were harvested by sucking them off the plates (suspension cells) or by trypsinization (adherent cell lines). Cells were centrifuged, resuspended in 0.5 ml PBS containing 1 μg/ml propidium iodide (PI), and red fluorescence measured on a FACScan flow cytometer after 20 min, 10^4 cells of every sample being analyzed. The percentage of dead cells was determined by their PI uptake. Two controls for every cell line (one in medium and one with 0.1% DMSO) were also analyzed.

T3 sequence (P16390 whole entry): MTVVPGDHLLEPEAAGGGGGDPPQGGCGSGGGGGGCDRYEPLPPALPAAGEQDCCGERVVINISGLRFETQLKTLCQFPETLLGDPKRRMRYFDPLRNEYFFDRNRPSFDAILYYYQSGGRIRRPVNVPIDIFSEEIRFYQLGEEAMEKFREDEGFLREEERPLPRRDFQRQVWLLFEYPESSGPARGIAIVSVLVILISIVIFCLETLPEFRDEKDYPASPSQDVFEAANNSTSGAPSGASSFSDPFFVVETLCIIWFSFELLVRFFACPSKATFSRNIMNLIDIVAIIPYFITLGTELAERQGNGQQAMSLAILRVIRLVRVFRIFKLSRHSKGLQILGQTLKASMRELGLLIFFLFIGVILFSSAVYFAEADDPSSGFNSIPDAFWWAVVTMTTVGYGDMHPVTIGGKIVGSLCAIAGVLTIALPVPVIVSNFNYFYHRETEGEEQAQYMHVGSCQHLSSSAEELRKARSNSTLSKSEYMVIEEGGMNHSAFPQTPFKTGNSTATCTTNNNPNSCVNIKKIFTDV
T7 sequence (Q64273 whole entry): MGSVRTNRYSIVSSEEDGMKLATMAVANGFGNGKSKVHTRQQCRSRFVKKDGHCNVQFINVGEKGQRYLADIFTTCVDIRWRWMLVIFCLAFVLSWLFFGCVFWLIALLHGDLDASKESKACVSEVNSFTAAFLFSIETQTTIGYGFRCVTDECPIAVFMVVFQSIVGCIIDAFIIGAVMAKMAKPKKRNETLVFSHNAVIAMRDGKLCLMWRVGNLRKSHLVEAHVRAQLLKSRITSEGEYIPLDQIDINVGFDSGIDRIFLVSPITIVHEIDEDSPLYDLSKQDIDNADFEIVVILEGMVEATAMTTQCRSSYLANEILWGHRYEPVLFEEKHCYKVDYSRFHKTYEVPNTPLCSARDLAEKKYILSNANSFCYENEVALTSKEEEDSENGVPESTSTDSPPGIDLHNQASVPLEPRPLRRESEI
T8 sequence (P35499 whole entry): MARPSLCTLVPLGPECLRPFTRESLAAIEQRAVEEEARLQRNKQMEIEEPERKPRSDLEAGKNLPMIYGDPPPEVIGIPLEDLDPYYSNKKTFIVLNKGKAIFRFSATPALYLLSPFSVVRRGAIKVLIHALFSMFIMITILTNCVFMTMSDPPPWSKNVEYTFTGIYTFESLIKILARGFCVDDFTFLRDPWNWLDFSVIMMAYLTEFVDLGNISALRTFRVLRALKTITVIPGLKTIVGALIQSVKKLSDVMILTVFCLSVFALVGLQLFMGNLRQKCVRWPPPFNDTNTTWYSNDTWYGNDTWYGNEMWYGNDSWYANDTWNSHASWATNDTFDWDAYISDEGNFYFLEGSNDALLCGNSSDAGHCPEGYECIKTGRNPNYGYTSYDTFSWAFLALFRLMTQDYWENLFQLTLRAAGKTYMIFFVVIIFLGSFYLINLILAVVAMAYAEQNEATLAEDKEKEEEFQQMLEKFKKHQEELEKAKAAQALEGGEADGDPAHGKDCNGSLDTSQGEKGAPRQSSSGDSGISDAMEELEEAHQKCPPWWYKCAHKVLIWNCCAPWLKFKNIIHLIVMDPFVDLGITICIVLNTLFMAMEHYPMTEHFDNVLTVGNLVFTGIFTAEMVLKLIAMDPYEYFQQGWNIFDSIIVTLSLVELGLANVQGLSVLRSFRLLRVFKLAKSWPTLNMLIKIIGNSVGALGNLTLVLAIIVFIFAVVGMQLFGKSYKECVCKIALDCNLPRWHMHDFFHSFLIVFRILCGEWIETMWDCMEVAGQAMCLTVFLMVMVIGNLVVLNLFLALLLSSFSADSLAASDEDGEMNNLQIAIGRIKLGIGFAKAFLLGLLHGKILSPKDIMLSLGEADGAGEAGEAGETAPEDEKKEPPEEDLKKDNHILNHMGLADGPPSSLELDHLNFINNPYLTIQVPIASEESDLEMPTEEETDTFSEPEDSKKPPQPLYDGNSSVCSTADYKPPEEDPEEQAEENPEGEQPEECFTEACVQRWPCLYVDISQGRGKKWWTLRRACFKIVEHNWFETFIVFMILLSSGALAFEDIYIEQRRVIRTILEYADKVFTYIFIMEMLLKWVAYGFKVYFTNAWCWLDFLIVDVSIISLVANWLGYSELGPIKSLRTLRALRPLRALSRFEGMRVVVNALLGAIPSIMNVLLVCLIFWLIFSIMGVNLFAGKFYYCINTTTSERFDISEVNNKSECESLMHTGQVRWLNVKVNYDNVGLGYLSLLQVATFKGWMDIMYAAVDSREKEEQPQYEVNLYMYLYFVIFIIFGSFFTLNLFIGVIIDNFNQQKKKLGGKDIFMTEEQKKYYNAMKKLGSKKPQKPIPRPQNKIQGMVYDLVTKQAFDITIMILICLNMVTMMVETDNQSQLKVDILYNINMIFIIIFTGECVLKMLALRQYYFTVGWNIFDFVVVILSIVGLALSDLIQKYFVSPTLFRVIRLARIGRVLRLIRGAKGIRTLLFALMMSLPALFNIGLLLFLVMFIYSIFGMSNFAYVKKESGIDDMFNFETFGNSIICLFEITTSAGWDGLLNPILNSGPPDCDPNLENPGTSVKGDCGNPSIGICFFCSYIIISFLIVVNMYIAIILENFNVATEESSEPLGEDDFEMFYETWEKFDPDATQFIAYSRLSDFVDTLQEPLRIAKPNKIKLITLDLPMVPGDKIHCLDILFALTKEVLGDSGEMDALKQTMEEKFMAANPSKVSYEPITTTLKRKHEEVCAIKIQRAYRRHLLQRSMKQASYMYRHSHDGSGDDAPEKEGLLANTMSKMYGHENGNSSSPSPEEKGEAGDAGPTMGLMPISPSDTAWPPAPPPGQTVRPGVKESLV
T2 sequence (P63142 whole entry): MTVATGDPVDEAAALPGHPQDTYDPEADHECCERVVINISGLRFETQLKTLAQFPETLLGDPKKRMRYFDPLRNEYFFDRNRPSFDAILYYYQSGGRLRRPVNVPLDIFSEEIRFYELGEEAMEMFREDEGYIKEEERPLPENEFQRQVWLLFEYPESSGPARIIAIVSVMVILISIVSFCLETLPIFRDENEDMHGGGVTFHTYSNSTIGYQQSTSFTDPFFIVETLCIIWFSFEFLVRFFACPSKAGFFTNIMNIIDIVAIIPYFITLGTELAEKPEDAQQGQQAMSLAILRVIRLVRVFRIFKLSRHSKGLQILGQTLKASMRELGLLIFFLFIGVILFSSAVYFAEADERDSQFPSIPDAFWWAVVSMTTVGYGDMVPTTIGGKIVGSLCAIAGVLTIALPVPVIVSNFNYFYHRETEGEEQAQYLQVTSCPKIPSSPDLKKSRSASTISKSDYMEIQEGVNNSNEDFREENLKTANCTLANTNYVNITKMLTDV
T1 sequence (P16388 whole entry): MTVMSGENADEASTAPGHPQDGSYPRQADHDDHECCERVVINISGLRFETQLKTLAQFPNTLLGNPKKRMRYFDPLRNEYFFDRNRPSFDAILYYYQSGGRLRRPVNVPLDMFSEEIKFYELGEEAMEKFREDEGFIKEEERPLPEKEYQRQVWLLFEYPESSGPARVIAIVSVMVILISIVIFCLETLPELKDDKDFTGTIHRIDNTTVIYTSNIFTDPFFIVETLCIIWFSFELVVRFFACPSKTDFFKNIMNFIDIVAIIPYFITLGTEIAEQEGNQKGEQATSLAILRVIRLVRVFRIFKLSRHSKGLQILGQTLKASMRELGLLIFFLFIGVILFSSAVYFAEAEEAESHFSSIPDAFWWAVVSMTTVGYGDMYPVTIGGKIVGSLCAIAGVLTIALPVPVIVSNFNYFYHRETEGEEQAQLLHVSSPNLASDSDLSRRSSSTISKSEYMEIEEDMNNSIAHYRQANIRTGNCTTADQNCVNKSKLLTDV
T4 sequence (P22459 whole entry): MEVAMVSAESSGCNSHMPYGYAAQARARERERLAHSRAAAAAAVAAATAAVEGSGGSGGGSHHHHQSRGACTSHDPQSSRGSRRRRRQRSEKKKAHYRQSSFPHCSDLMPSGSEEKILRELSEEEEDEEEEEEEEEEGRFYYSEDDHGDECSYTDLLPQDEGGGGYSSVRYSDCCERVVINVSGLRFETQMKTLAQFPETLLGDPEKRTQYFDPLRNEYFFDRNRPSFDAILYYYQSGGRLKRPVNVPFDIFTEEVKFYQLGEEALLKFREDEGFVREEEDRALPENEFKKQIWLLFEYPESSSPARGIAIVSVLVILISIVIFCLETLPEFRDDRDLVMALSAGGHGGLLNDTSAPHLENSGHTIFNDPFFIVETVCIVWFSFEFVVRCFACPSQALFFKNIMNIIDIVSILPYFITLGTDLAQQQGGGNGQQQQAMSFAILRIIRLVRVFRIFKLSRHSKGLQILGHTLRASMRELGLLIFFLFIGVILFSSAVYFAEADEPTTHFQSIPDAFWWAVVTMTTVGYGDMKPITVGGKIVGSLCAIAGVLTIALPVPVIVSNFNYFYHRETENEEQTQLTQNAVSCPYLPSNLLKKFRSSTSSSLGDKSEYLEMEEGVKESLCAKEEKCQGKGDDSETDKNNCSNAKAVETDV
T5 sequence (Q63881 whole entry): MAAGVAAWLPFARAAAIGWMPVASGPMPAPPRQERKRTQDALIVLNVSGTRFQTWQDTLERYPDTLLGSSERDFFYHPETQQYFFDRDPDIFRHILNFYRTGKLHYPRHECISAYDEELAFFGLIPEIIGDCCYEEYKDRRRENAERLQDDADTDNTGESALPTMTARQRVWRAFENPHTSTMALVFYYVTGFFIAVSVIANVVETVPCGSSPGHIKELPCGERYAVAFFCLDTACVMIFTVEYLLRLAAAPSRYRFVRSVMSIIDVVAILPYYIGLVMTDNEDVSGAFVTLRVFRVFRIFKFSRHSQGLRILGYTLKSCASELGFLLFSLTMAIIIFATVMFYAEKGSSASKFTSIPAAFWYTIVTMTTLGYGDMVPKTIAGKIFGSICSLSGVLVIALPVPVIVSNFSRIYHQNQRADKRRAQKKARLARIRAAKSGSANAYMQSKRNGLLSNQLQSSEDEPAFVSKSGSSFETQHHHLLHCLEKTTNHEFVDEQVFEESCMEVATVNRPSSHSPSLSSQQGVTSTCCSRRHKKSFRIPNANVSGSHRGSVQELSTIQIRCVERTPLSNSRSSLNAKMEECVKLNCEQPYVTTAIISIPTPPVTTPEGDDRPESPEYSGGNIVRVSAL

Work on `Clc1ccccc1C(c1ccccc1)(c1ccccc1)n1cccn1` [Compound T34, 1-[(2-Chlorophenyl)diphenylmethyl]-1H-pyrazole] yielded a Kd (mKv1.1) of 9.5 ± 1 µM, a Kd (rKv1.2) of 4.5 ± 0.52 µM and a Kd (mKv1.3) of 5 ± 0.35 µM. It also gave a Kd (hKv1.4) of 7.5 ± 0.41 µM, a Kd (rKv4.2) of 6 ± 0.87 µM and a Kd (BK (hSloα)) of 25 ± 1.8 µM. The “Block of rKir2.1” value (rKir2.1) was “no effect at 10 μM”, the Kd (HSKM1) was 8 ± 0.6 µM and the “Block of Jurkat-CRAC (Ca)” value (Jurkat-CRAC) was “no effect at 10 μM”. The Kd [1] was at least 5 µM, the “percentage of dead cells (PI uptake)” value (human T-lymphocytes; 2 μM) was 6.2% and the “percentage of dead cells (PI uptake)” value (human T-lymphocytes; 5 μM) was 7.0%. The “percentage of dead cells (PI uptake)” value (L929 cells; 2 μM) was 4.6%, the “percentage of dead cells (PI uptake)” value (L929 cells; 5 μM) was 7.5% and the “percentage of dead cells (PI uptake)” value (MEL cells; 2 μM) was 6.2%. For the same compound, the “percentage of dead cells (PI uptake)” value (MEL cells; 5 μM) was 5.8%, the “percentage of dead cells (PI uptake)” value (COS-7 cells; 2 μM) was 3.6% and the “percentage of dead cells (PI uptake)” value (COS-7 cells; 5 μM) was 4.5%. For the same compound, the “percentage of dead cells (PI uptake)” value (CHO cells; 2 μM) was 5.6%, the “percentage of dead cells (PI uptake)” value (CHO cells; 5 μM) was 4.7% and the “percentage of dead cells (PI uptake)” value (RBL-2H3 cells; 2 μM) was 7.9%. For the same compound, the “percentage of dead cells (PI uptake)” value (RBL-2H3 cells; 5 μM) was 8.8%, the clinical appearance (CF-1 BR mice; 7-day study) was “all animals appeared clinically normal” and the mortality (CF-1 BR mice; 7-day study) was “no mortality”. For the same compound, the “body weight on day 1” value (CF-1 BR mice; day 1) was 17.8 g, the “body weight on day 7” value (CF-1 BR mice; day 7) was 27.0 g and the half-life ([2]; artificial stomach fluid (DAB 9), pH 1) was about 45 min. The stability against hydrolysis ([2]; pH 5.0, 37° C.) was “completely stable”, the stability against hydrolysis ([2]; pH 7.4, 37° C.) was “completely stable” and the stability against hydrolysis ([2]; pH 10) was “completely stable”. For the same compound, the “cell viability in the ten cell lines examined” value (ten cell lines) was “did not reduce cell viability”.
